This is an account of results in patent US8263821B2, “Non-invasive real-time in vivo bioluminescence imaging of local CaÂ2+ dynamics in living organisms” (priority 2004, dated 2012).

Test [1] concerns Ca2+ oscillations in somatosensory cortex slices. In words: Mitochondrial Ca2+ oscillations (bioluminescence) in organotypic cortical slices from mtGA transgenic mice. The conditions noted are these: D-APV 50 μM; slices from P4 mtGA mice, 4-5 days in culture. Format: cell-based, mouse.
For another test, the system named is cortical neurons. In words: Single-cell Ca2+ induced bioluminescence in cortical neurons transfected with GA. Format: cell-based. The conditions noted are these: GA reconstituted with h coelenterazine. The protocol: Cultures were plated on to glass-bottomed dishes and mounted to a stage adapter on a fully automated inverted microscope mounted in a black-box. GFP-Aequorin was reconstituted with 2.5-5 μM coelenterazine for 30 minutes at 37° C. Incubation of cells with coelenterazine that had been transfected with SynGA was undertaken at room temperature to reduce the consumption of the photoprotein during the reconstitution process. Cells were perfused with tyrodes buffer. Prior to bath application of NMDA, cells were perfused for 1 minute without Mg^2+. All recordings were made at room temperature (22-25° C.). […]
The fluorescence/bioluminescence wide field microscopy system was custom built by ScienceWares, Inc. The system includes a fully automated inverted microscope (200M, Zeiss Germany) and is housed in a light-tight dark box. […] Low level light emission (photon rate <100 kHz), was collected using an Image Photon Detector (IPD 3, Photek Ltd.) connected to the baseport of the microscope, which assigns an X, Y coordinate and time point for each detected photon (Miller et al., 1994). The system is fully controlled by the data acquisition software, which also converts single photon events into an image that can be superimposed with brightfield or fluorescence images made by a connected CCD camera to the C-port (Coolsnap HQ, Roper Scientific). […]

On to `N[C@H](CCCP(=O)(O)O)C(=O)O` [D-APV], for which, in test [1], the “block of Ca2+ oscillations generated by removal of Mg2+ from the buffer” value was “completely and reversibly blocked”. Consider `[Cl-].[K+]` [KCl], for which the “Ca2+ induced bioluminescence signal after stimulation” value in the test on cortical neurons (KCl 90 mM) is recorded as “robust signal”. Regarding `CN[C@H](CC(=O)O)C(=O)O` [NMDA], in the test with cortical neurons (NMDA 100 μM), the “Ca2+ induced bioluminescence signal after stimulation” value is “robust signal”.
